The values that follow come from patent EP0651751B1, “FAMILY OF PORPHIN RING SUBSTANCES, METHOD OF OBTAINING THEM FROM CYANOPHYCEAE, AND APPLICATIONS AS COSMETICS AND AS THERAPEUTIC PRODUCTS” (GENERALE DE PREVENTION ET DE LOISIRS, priority 1992, dated 1994).

Assay [1] deals with collagène fibreux insoluble. Description: Increase of the resistance of collagen to collagenase (agarose gel, diameter of hydrolysis zones). Particulars: product in the gel at 0,025 %; collagénase pancréatique 10 mg/ml (3800 U/ml), 15 h at 37°C, Tris pH 8,8. Format: biochemical. The method, then: * Accroissement de la résistance du collagène aux effets de la collagénase : - Mise en évidence : On répartit dans quatre boîtes de Pétri de 8 cm de diamètre 20 ml d'une solution à 1 % d'agarose dans du tampon Tris pH 8,8, contenant en suspension 20 mg de collagène fibreux insoluble et 0, 0,1, 0,3 et 0,5 ml d'une solution à 5 % de produit à tester selon les boîtes, soient des concentrations de 0, 0,025 %, 0,075 %, 0,125 %. Comme la plupart des produits à tester ne sont pas solubles dans le tampon, on part d'une solution mère dans du diméthylsulfoxyde (DMSO). Cette répartition se fait à 45°C. Après solidification de l'agarose, on perfore 5 puits de 3 mm de diamètre dans le gel grâce à un emporte-pièce. Dans ces 5 puits, on place 50 µl d'une solution de collagénase pancréatique dans du tampon Tris pH 8,8 à une concentration de 10 mg/ml (3800 U/ml). Les boîtes de Pétri sont incubées 15 heures à 37°C, puis le gel est coloré par une solution à 0,25 % d'acide picrique à 0,25 % pendant 3 min, puis une solution de Rouge Sirius à 0,1 % pendant 5 min. L'excès de coloration est éliminé par lavage à l'eau. - Résultats :
(§1) On évalue l'action enzymatique en mesurant le diamètre des zones d'hydrolyse du collagène fibreux. Le groupe chlorophylle-chlorophyllide est le plus actif, ce qui suggère que la présence de magnésium dans la structure a une grande importance. * Effet d'inhibition de la collagénase : - Mise en évidence : On répartit dans quatre boîtes de Pétri de 8 cm de diamètre 20 ml d'une solution à 1 % d'agarose dans du tampon Tris pH 8,8, contenant en suspension 20 mg de collagène fibreux insoluble. Cette répartition se fait à 45°C. Après solidification de l'agarose, on perfore 5 puits de 3 mm de diamètre dans le gel grâce à un emporte-pièce. Dans ces 5 puits, on place 25 µl d'une solution de collagénase pancréatique dans du tampon Tris pH 8,8 à des concentrations de : 10 mg/ml (3800 U/ml) et 25 µl d'une solution de la substance à tester dans le même tampon à une concentration de 4 %, 3 %, 2 %, 1 % et 0 %. Comme la plupart des produits à doser ne sont pas solubles dans le tampon, on part d'une solution mère dans du diméthylsulfoxyde. Les boîtes de Pétri sont incubées 15 heures à 37°C, puis le gel est coloré par une solution à 0,25 % d'acide picrique à 0,25 % pendant 3 min, puis une solution de Rouge Sirius à 0,1 % pendant 5 min. L'excès de coloration est éliminé par lavage à l'eau. - Résultats : […]

The test system of assay [2] is collagénase pancréatique. Put plainly: Collagenase inhibition (agarose gel diffusion, enzyme and substance together in the well). Particulars: 15 h at 37°C. The format is biochemical. The method, then:
as §1

Assay [3] addresses élastase pancréatique (Sus scrofa, UniProt P00772). Description: Pancreatic elastase inhibition on synthetic substrate N succinyl N ala-ala-ala-p nitroanilide. Format: biochemical. Conditions: 0,5 ml of 0,1 % test solution in DMSO à 50 %, 3 ml total; pH 7,6; OD 410 nm over 3 min. From the text:
Dans ce test, les substances les plus performantes sont les mêmes que dans le test précédent (chlorophylle-chlorophyllide); de plus, ces substances présentent un effet de renforcement de la résistance du collagène contre les effets de la collagénase, alors que l'enzyme elle-même est peu atteinte par ces substances. * Inhibition de l'élastase pancréatique : - Mise en évidence : L'activité de l'élastase pancréatique est déterminée sur un substrat synthétique. On constate que les produits décrits ci-dessus ont un effet sur cette enzyme alors que le substrat est un dérivé de peptide de faible poids moléculaire : le N succinyl N ala-ala-ala-p nitroanilide. Solution substrat : solution du substrat ci-dessus à 1 % dans du tampon phosphate pH 7,6. Solution enzymatique : élastase pancréatique à (1000 U/ml) dans le tampon pH 7,6. Solvant DMSO à 50 % dans de l'eau distillée. Solution à tester : substance à tester en solution dans le solvant à 0,1 %. Dans un premier tube à essai (blanc), on place : • 2,2 ml de tampon pH 7,6 • 0,3 ml de solution enzymatique • 0,5 ml de solvant. Dans un deuxième tube à essai (essai), on place : • 1 ml de solution substrat • 1,2 ml de tampon pH 7,6 • 0,3 ml de solution enzymatique • 0,5 ml de solution à tester. Dans un troisième tube à essai, on place : • 1 ml de solution substrat • 1,2 ml de tampon pH 7,6 • 0,3 ml de solution enzymatique • 0,5 ml de solvant. On mesure la D.O. de la solution essai contre la solution blanc à 410 nm. On note la valeur toutes les 30 secondes pendant 3 minutes. On réalise la même mesure pour la solution témoin. L'activité de l'enzyme est définie par la vitesse d'augmentation de D.O. du témoin. L'activité de la solution inhibitrice à tester se définit comme une diminution relative de l'activité de l'enzyme. - Résultats : […]

Assay [4] has as its system fibroblastes humains MRC5. Put plainly: Total protein synthesis by fibroblasts in culture (Coomassie blue, OD 595 nm). Format: cell-based. Particulars: 100 µl per well, MRC5, 28th passage, medium sampled after 48, 72, 96 and 120 h (time not given); for activation at 50 µg/mL: Homo sapiens, read-out: augmentation de la synthèse protéique par rapport au témoin; for augmentation de la synthèse protéique par rapport au témoin: 50 µg/ml. From the text: Dans ce test, qui est un test relatif à une inhibition enzymatique vraie, puisque le substrat est artificiel et de structure assez éloignée des substrats naturels de l'enzyme, on constate que les molécules les plus actives en tant qu'inhibiteurs, sont celles dépourvues de radical phytile; la présence du magnésium n'apparaît pas comme essentielle, pour cette fonction particulière, d'où l'intérêt de compositions comprenant plusieurs des substances actives définies ci-dessus. * Effet des substances décrites sur la synthèse des protéines totales par des fibroblastes en culture (restructuration) : - Mise en évidence : Une étude de cytotoxicité est réalisée au préalable pour déterminer les concentrations maximales de test des différentes substances concernées. Cellules utilisées : fibroblastes humains MRC5, au 28ème passage. Les cellules sont ensemencées sur une plaque à 96 puits à raison de 2.10^5 cellules par puits environ et mises en culture dans du milieu minimum de Eagle (MEM) additionné de 1 % de glutamine 200 mM, 1 % de solution de vitamines, 100 U/ml de pénicilline, 100 U/ml de streptomycine et 2 % de sérum de veau foetal. La solution à tester est ajoutée à raison de 100 µl par puits, à la concentration de 50 µg/ml. Les cellules sont incubées à 37°C sous 5 % d'atmosphères de CO2. On prélève le milieu de culture après 48, 72, 96 et 120 heures de culture. Les protéines totales synthétisées sont déterminées après coloration des surnageants par le bleu de Coomassie et mesure de la D.O. à 595 nm. L'augmentation de la synthèse protéique est mesurée par rapport au témoin (solvant de la substance à tester). - Résultats : […]

The nature of assay [5]: Antiradical effect, chemical method (DPPH, OD 519 nm). Conditions: 0,15 ml of 2 % solution in methanol; 25°C, 5 min; pH 7; toluene extraction. Here is the method: Dans ce test, on constate une relative homogénéité des actions des différentes substances, contrairement aux tests précédents; ici, c'est donc la structure commune qui doit jouer le rôle principal dans cette action. - Mise en évidence par la méthode chimique : Réactif : 1,1-diphényl-2-picrylhydrazyle : 2,5 mg dans 100 ml de méthanol. Solvant des substances antiradicalaires : méthanol. Solution antiradicalaire : 2 % dans du méthanol. Ce produit est un radical libre stable pouvant être dégradé par des substances antiradicalaires. On réalise un blanc pour le témoin et un blanc pour l'essai : Blanc témoin : tampon phosphate pH 7 : 1,5 ml méthanol : 3 ml Témoin : solution réactif : 3 ml tampon phosphate pH 7 : 1,5 ml Blanc essai : tampon phosphate pH 7 : 1,35 ml méthanol : 3,15 ml Essai : solution réactif : 3 ml tampon phosphate pH 7 : 1,35 ml solution d'antiradicalaire : 0,15 ml. On agite à 25°C pendant 5 min. Puis on extrait par 4 ml de toluène pendant 30 secondes. On filtre sur un papier séparateur de phases et on lit la D.O. de la solution de toluène à 519 nm contre la solution de toluène obtenue pour le blanc correspondant. On calcule le pourcentage de réactif disparu. - Résultats : […]
In general terms: DPPH is a stable violet radical that fades when it is reduced.

Where [6] appears, read: 25 µl substance solution at 1 % with 25 µl collagénase 10 mg/ml in the well.
[7] abbreviates: 25 µl substance solution at 2 % with 25 µl collagénase 10 mg/ml in the well.
[8] abbreviates: 25 µl substance solution at 3 % with 25 µl collagénase 10 mg/ml in the well.
[9] abbreviates: 25 µl substance solution at 4 % with 25 µl collagénase 10 mg/ml in the well.

Chain of élastase pancréatique (P00772 27-266): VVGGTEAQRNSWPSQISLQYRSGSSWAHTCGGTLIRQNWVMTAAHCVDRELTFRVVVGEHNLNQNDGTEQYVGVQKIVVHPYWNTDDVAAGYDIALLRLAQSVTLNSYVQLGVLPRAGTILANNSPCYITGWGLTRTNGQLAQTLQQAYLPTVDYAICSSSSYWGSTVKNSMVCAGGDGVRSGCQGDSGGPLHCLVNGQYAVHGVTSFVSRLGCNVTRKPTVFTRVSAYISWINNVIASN

For `C=CC1=C(C)c2cc3[nH]c(c(CCC(=O)OCC=C(C)CCCC(C)CCCC(C)CCCC(C)C)c3C)c3c4nc(cc5[nH]c(cc1n2)c(C)c5CC)C(C)=C4C(=O)C3C(=O)OC` (centres unmarked) [Phaéophytine a, didéhydrophaéophytine a], the “Accroissement de la résistance du collagène aux effets de la collagénase” value in assay [1] turned out to be 0%. The “Effet d'inhibition de la collagénase” value in assay [2] (setting [6]) was determined as 0%; in assay [2] (setting [7]), 0%; in assay [2] (setting [8]), 0%; in assay [2] (setting [9]), 2%. Moreover, the “Inhibition de l'élastase pancréatique (diminution relative de l'activité de l'enzyme)” value in assay [3] is 9%. Also, the activation at 50 µg/mL in assay [4] came out at 4%. Besides, the “pourcentage de réactif disparu (méthode chimique)” value (from here on “pourcentage de réactif disparu”) in assay [5] was found to be 20%.
Turning to didéhydrochlorophylle a, in assay [1], the “Accroissement de la résistance du collagène aux effets de la collagénase” value stood at 5%. Also, the “Effet d'inhibition de la collagénase” value in assay [2] (setting [6]) came to 2%; in assay [2] (setting [7]), 3%; in assay [2] (setting [8]), 3%; in assay [2] (setting [9]), 4%. Moreover, in assay [3], the “Inhibition de l'élastase pancréatique (diminution relative de l'activité de l'enzyme)” value amounted to 12%. Further, the “augmentation de la synthèse protéique par rapport au témoin” value in assay [4] amounted to 15%. Further, in assay [5], the “pourcentage de réactif disparu” value amounted to 84%.
As for didéhydrochlorophyllide a, the “Accroissement de la résistance du collagène aux effets de la collagénase” value in assay [1] was found to be 3%. The “Effet d'inhibition de la collagénase” value in assay [2] (setting [6]) stood at 3%; in assay [2] (setting [7]), 6%; in assay [2] (setting [8]), 8%; in assay [2] (setting [9]) it was 9%. The “Inhibition de l'élastase pancréatique (diminution relative de l'activité de l'enzyme)” value in assay [3] was determined as 28%. In addition, the “augmentation de la synthèse protéique par rapport au témoin” value in assay [4] turned out to be 23%. Further, in assay [5], the “pourcentage de réactif disparu” value turned out to be 83%.
With `C=CC1=C(C)c2cc3[nH]c(c(CCC(=O)O)c3C)c3c4nc(cc5[nH]c(cc1n2)c(C)c5CC)C(C)=C4C(=O)C3C(=O)OC` (centres unmarked) [Phaéophorbide a, didéhydrophaéophorbide a], the “Accroissement de la résistance du collagène aux effets de la collagénase” value in assay [1] was 2%. Moreover, the “Effet d'inhibition de la collagénase” value in assay [2] (setting [6]) came out at 2%; in assay [2] (setting [7]), 2%; in assay [2] (setting [8]), 2%; in assay [2] (setting [9]), 6%. Besides, in assay [3], the “Inhibition de l'élastase pancréatique (diminution relative de l'activité de l'enzyme)” value came out at 17%. In addition, the activation at 50 µg/mL in assay [4] is 1%. Moreover, the “pourcentage de réactif disparu” value in assay [5] worked out at 33%.
